Measurements: patent publication US11602567B2, “Methods for modulating RNA splicing” (PTC Therapeutics, Inc., priority 2015, dated 2023)

Key:
Test in all cases: Endpoint RT-PCR analysis of alternatively spliced mRNAs in cultured cells
Format in all cases: cell-based, human
RCC 1 exon 4 = settings: RCC 1 exon 4, sequence AGAGgtaaga; GM03813 cells, 24 hours; without compound 90
Description: (§1) Endpoint RT-PCR Analysis of Alternatively Spliced mRNAs in Cultured Cells GM03813 cells derived from a patient with SMA type I (Coriell Institute) were plated at 5,000 cells/well in 200 μl DMEM with 10% FBS in 96-well plates, and incubated for 6 hours in a cell culture incubator (37° C., 5% CO2, 100% relative humidity). Cells were then treated with Compound 702 at different concentrations (in 0.5% DMSO) in duplicate for 24 hours. After removal of the supernatant, cells were lysed in Cells-To-Ct lysis buffer (Life Technologies, Inc.). Reverse transcription was performed using 5 μl of cell lysate and the iScript RT enzyme kit (Bio-Rad Laboratories, Inc). PCR was performed using 5 μl of cDNA and Platinum Taq HiFi DNA Polymerase (Life Technologies, Inc.) under the following PCR conditions: Step 1: 94° C. (2 min), Step 2: 94° C. (30 sec), Step 3: 55° C. (30 sec), Step 4: 68° C. (1 min), then repeat Steps 2 to 4 for 33 cycles, then hold at 4° C. PCR products were separated on 2% agarose E-gels, stained with ethidium bromide and visualized using a gel imager (UVP). [table]

COL1A1 exon 46 = settings: COL1A1 exon 46, sequence CCGAgtaagt; GM03813 cells, 24 hours; without compound 100
Description: as §1

ERGIC3 exon 8 = settings: ERGIC3 exon 8, sequence GAGAgtaagt; GM03813 cells, 24 hours; without compound 0
Description: as §1

COL1A1 exon 5 = settings: COL1A1 exon 5, sequence AGGAgtaagt; GM03813 cells, 24 hours; without compound 0
Description: as §1

COL5A2 exon 34 = settings: COL5A2 exon 34, sequence CAGAgtaagt; GM03813 cells, 24 hours; without compound 100
Description: as §1

COL5A2 exon 35 = settings: COL5A2 exon 35, sequence AAGAgtaagt; GM03813 cells, 24 hours; without compound 100
Description: as §1

ARMCX6 exon 3 = settings: ARMCX6 exon 3, sequence TAGAgtatga; GM03813 cells, 24 hours; without compound 0
Description: as §1

COL1A1 exon 32 = settings: COL1A1 exon 32, sequence CAGAgtaagt; GM03813 cells, 24 hours; without compound 90
Description: as §1

COL3A1 exon 10 = settings: COL3A1 exon 10, sequence CAGAgtaagt; GM03813 cells, 24 hours; without compound 100
Description: as §1

COL1A2 exon 21 = settings: COL1A2 exon 21, sequence GAGAgtaggt; GM03813 cells, 24 hours; without compound 100
Description: as §1

FN1 exon 35 = settings: FN1 exon 35, sequence GAGAgtaagt; GM03813 cells, 24 hours; without compound 100
Description: as §1

GALC exon 5 = settings: GALC exon 5, sequence TGGAgttagt; GM03813 cells, 24 hours; without compound 90
Description: as §1

COL5A2 exon 32 = settings: COL5A2 exon 32, sequence TAGAgtaagt; GM03813 cells, 24 hours; without compound 100
Description: as §1

PARP1 exon 22 = settings: PARP1 exon 22, sequence ACGAgtatcc; GM03813 cells, 24 hours; without compound 100
Description: as §1

[1] = tested on: FOXM1 exon 7A (114 nucleotides); settings: sequence ATCAgtaagt, GM03813 cells, 24 hours, without compound 0
Description: as §1

GGCT exon 2 = settings: GGCT exon 2, sequence ATGAgtaggt; GM03813 cells, 24 hours; without compound 40
Description: as §1

STRN3 exon 8 = settings: STRN3 exon 8, sequence AAGAgtaagt; GM03813 cells, 24 hours; without compound 10
Description: as §1

PRKDC exon 51 = settings: PRKDC exon 51, sequence GCGAgtacgt; GM03813 cells, 24 hours; without compound 100
Description: as §1

LAMA2 exon 5 = settings: LAMA2 exon 5, sequence AAGAgtaagt; GM03813 cells, 24 hours; without compound 100
Description: as §1

COL1A1 exon 11 = settings: COL1A1 exon 11, sequence CAGAgtgagt; GM03813 cells, 24 hours; without compound 100
Description: as §1

APLP2 exon 7 = settings: APLP2 exon 7, sequence ATGAgtaagt; GM03813 cells, 24 hours; without compound 10
Description: as §1

PRKDC exon 11 = settings: PRKDC exon 11, sequence AGGAgtatgt; GM03813 cells, 24 hours; without compound 100
Description: as §1

COL5A2 exon 49 = settings: COL5A2 exon 49, sequence AAGAgtaagt; GM03813 cells, 24 hours; without compound 90
Description: as §1

LARP7 exon 1 = settings: LARP7 exon 1, sequence CGGAgtaagt; GM03813 cells, 24 hours; without compound 0
Description: as §1

VPS29 exon 2 = settings: VPS29 exon 2, sequence CAGAgtaagt; GM03813 cells, 24 hours; without compound 40
Description: as §1

DIAPH3 exon 11 = settings: DIAPH3 exon 11, sequence TTGAatatcc; GM03813 cells, 24 hours; without compound 100
Description: as §1

[2] = tested on: FOXM1 exon 7A […]C (34 nucleotides); settings: sequence ATGAgtaagt, GM03813 cells, 24 hours, without compound 0
Description: as §1

MADD exon 21 = settings: MADD exon 21, sequence CAGAgtaagg; GM03813 cells, 24 hours; without compound 0
Description: as §1

SMN2 exon 5 = settings: SMN2 exon 5, sequence ACCAgtaagt; GM03813 cells, 24 hours; without compound 50
Description: as §1

LARP7 exon 2 = settings: LARP7 exon 2, sequence AAGAgtaaga; GM03813 cells, 24 hours; without compound 10
Description: as §1

COL3A1 exon 46 = settings: COL3A1 exon 46, sequence CAGAgtaagt; GM03813 cells, 24 hours; without compound 100
Description: as §1

COL5A2 exon 13 = settings: COL5A2 exon 13, sequence CCGAgtaagt; GM03813 cells, 24 hours; without compound 100
Description: as §1

COL1A1 exon 30 = settings: COL1A1 exon 30, sequence AAGAgtaagt; GM03813 cells, 24 hours; without compound 60
Description: as §1

FADS2 exon 6 = settings: FADS2 exon 6, sequence CTGAgtaagt; GM03813 cells, 24 hours; without compound 100
Description: as §1

COL1A2 exon 30 = settings: COL1A2 exon 30, sequence AAGAgtaagt; GM03813 cells, 24 hours; without compound 100
Description: as §1

SMN2 exon 7 = settings: SMN2 exon 7, sequence AGGAgtaagt; GM03813 cells, 24 hours; % inclusion of exon without compound 40
Description: as §1

COL1A2 exon 22 = settings: COL1A2 exon 22, sequence CAGAgtaagt; GM03813 cells, 24 hours; without compound 100
Description: as §1

Measured: % Inclusion of Exon with Compound

CCN1CCC(c2cc(C)c3nc(-c4cc5c(C)nc(C)cn5n4)cc(=O)n3c2)CC1 [Compound 702]
100%: STRN3 exon 8 | VPS29 exon 2 | SMN2 exon 7
10%: ERGIC3 exon 8 | [1] | LARP7 exon 1
40%: LARP7 exon 2
30%: APLP2 exon 7
5%: MADD exon 21
90%: [2] | COL1A1 exon 30
95%: GGCT exon 2
no change: all other assays above
